Read-outs that look alike come from different tables or passages of the source. Each block holds one compound with its values, some of them ahead of it.
Experiments:
OCT2 [1] = target: T1, OCT2 (Homo sapiens, UniProt O15244); assay: Inhibition of OCT2-mediated oxaliplatin transport in 100% human serum or HBSS containing 4% BSA (IC50,app); conditions: for transporter preference in inhibiting oxaliplatin transport: serum or 4% BSA
T1 sequence (O15244 1-555): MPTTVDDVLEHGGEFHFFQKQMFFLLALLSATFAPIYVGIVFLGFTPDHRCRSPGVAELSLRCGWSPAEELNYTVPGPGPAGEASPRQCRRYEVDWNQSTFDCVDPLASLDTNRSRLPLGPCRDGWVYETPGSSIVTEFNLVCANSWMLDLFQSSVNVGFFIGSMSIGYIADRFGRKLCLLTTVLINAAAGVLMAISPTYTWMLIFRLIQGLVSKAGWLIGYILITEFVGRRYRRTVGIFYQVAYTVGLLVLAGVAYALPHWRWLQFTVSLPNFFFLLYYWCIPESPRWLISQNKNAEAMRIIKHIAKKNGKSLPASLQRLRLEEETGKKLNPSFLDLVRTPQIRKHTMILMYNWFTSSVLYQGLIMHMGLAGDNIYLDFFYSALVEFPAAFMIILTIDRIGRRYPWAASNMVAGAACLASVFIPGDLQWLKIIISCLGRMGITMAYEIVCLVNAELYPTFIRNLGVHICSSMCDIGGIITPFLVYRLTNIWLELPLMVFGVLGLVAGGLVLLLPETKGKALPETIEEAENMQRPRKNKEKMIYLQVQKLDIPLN

[2] = system: MDCK cells expressing OCT2, MATE1 and MATE2K; assay: LDH cytotoxicity of oxaliplatin in MDCK-II triple-transporter model; conditions: for effect on oxaliplatin induced cytotoxicity in OCT2 expressing cells: buflomedil 3 and 6 μM, dolutegravir 10 μM, erlotinib 6 μM, cimetidine 6 μM, FIG. 6
Description: A triple-transporter model for OCT2(SLC22A2), MATE1(SLC47A1), and MATE2-K(SLC47A2) was created by transfecting fully confluent MDCK-II cell monolayers with DNA mixture containing the plasmids encoding OCT2, MATE1, and MATE-2K at concentrations of 40, 15, and 5 ng/μl, respectively. The OCT2 was expressed on the basolateral cell membrane, and MATE1 and MATE2-K were expressed on the apical side of the cells. […] The apical medium was adjusted to pH 6.7 with 25 mM of 2-(N-morpholino) ethanesulfonic acid (MES).
After removal of the media, a drug-free medium was added in both sides. After incubation 24 hours, the medium was collected, and the lactate dehydrogenase (LDH) activity in the medium was measured using an LDH cytotoxicity assay kit (G-Biosciences. St. Louis, Mo.; or Biochain, Newark, Calif.), according to the manufacturers' instructions. Cytotoxicity was evaluated by measuring the LDH activity in the medium.
Cytotoxicity was tested using the same procedure described above.

OCT2 [3] = target: T1, OCT2; assay: Inhibition of OCT2-mediated ASP+ uptake (Kido et al., Giacomini group); conditions: human, cell line expressing human OCT2 (cell line not given), probe ASP+ 5 μM
OCT2 [4] = target: T1, OCT2; conditions: cited from earlier work
OCT2 [5] = target: T1, OCT2; assay: Inhibition of OCT2-mediated oxaliplatin uptake in transfected MDCK-II cells (protein-free HBSS); conditions: for inhibition at 30 min, 5 μM / inhibition at 30 min, 50 μM / potency estimated from few doses at 30 min: human
Description: Fully confluent MDCK cell monolayers were transfected with either cDNA plasmids encoding the human transporter to be tested or a GFP control. […] The cells were then washed with ice-cold PBS and lysed with 50:50 acetonitrile:H2O. Intracellular content of the substrate was quantified by LC/MS/MS or a MicroBeta radiometric plate reader.

[6] = cited from earlier work
[7] = human, in vivo
OCT2 [8] = target: T1, OCT2; assay: Inhibition of OCT2-mediated metformin uptake in transfected MDCK-II cells
HepG2 cells = assay: Anti-proliferation study (SRB assay) in HepG2 cells; conditions: FIG. 10
Description: (§1) The potency was determined by the sulforhodamine B (SRB) assay in 96-well plates. […] Seeding density was 3000 cells/well for both cell lines.

[9] = Published clinical pharmacokinetic data; conditions: from published Cmax and protein binding
[10] = system: cells co-expressing OCT2 and MATE1; assay: Intracellular oxaliplatin content in cells co-expressing OCT2 and MATE1; type: cell-based; conditions: oxaliplatin 100 μM in 4% BSA HBSS, 90 min
Description: In most naturally occurring cells, uptake transporters co-exist with efflux transporters. It is the interplay between the uptake and efflux transporters that determines the net intracellular accumulation of a substrate. One example is in the proximal tubule epithelial cells in the kidney, where the basolaterally expressed transporters, mainly OCT2, work in concert with the apically expressed MATE1 and MATE2K [5]. […] Cells with single expression of OCT2 or GFP mock were also used as a control.

HT-29 cells = assay: Anti-proliferation study (SRB assay) in HT-29 cells; conditions: co-treatment; FIG. 11
Description: as §1

OCT2 [11] = target: T1, OCT2; assay: in vitro
OCT2 [12] = target: T1, OCT2; assay: in vitro; remark: listed apart in the source
[13] = system: Balb/c mice exposed to chronic treatment with Oxaliplatin; assay: Cold Plate Test in chronic oxaliplatin neuropathy model; type: in vivo, mouse; conditions: OXA 3.5 mg/kg iv ± BFMD 30 mg/kg ip + 15 mg/kg iv
Description: Cold Plate Test was used to determine the alterations in cold temperature related pain perception and their changes due to pharmacological treatment. Cold Plate Test was performed by using an apparatus (35100—Hot/Cold Plate. Ugo Basile instruments) composed by a Plexiglas cylinder and a thermostatic plate, able to reach variable temperatures. The mice were placed on the plate set at +4° C., free to move and walk. Two blinded experimenters simultaneously determine the number of pain signs (e.g. jumping, licking, etc.) in a trial of 5 minutes.

[14] = Plasma levels of buflomedil and oxaliplatin in the chronic model; type: in vivo, mouse; conditions: 15 minutes after the 8th cycle
Description: At baseline (before drug treatment) and at the end of treatment, caudal nerve conduction study (NCS), behavioral tests (Dynamic and Cold Plate), histopathology study were performed. Serum samples were collected at the end of treatment.

[15] = system: Balb/c mice exposed to chronic treatment with Oxaliplatin; assay: Morphometry and histopathology of DRG neurons in chronic oxaliplatin neuropathy model; type: in vivo, mouse
Description: The investigator was blind to the nerve and DRG conditions for these analyses. Three animals from each group were sacrificed four days after the last oxaliplatin dose. The left sciatic nerves and the L4-L5 DRGs were harvested and processed following previously reported protocols, resin embedded and sectioned for light and electron microscope analysis. For the light microscopy analysis, 1 μm semithin sections were stained with toluidine blue and examined using a Nikon Eclipse E200 light microscope (Nikon, Firenze, Italy). For the electron microscopy analysis, ultrathin sections (80 nm) counterstained with uranyl acetate and lead citrate, were examined with a Philips CM 10 transmission electron microscope (Philips, Eindhoven, Netherlands).
The investigator was blind to the experimental conditions of the tissue for these experiments. One micron thick semithin sections stained with toluidine blue were used for morphometric examination of the DRGs from control (n=3) and oxaliplatin-treated mice (n=3). (Renn et al. Molecular Pain 2011, 7:29). Only the cells where the nucleolus was included in the section plane of 50 μm-spaced out sections were considered to avoid the overlapping of the same cell bodies and they were analyzed with computer-assisted image analysis (ImageJ, NIH) to measure the soma and nucleolus size of at least 300 DRG neurons per mouse.

[16] = system: Balb/c mice exposed to chronic treatment with Oxaliplatin; assay: Dynamic Plantar Aesthesiometer Test in chronic oxaliplatin neuropathy model; type: in vivo, mouse; conditions: OXA 3.5 mg/kg iv, 8 cycles ± BFMD 30 mg/kg ip + 15 mg/kg iv
Description: The Dynamic Plantar Aesthesiometer Test was used to determine the alterations in mechanical pain perception and their changes due to pharmacological treatment. Mice were accustomed to the device 3 days before performing the tests after a 1 hour acclimatization period followed by testing. The mechanical nociceptive threshold was assessed using a Dynamic Aesthesiometer Test (model 37450, Ugo Basile Biological Instruments, Comerio. Italy), which generated a linearly increasing mechanical force. At each time point, after the acclimatization period, a servo-controlled mechanical stimulus (a pointed metallic filament, 0.5-mm diameter) was applied to the plantar surface of the hind paw, which exerted a progressively increasing punctuate pressure, reaching up to 15 g within 15 seconds. The pressure evoking a clear voluntary hind-paw withdrawal response was recorded automatically and taken as representing the mechanical nociceptive threshold index. The mechanical threshold was always assessed alternatively on each side every 2 minutes on 3 occasions to yield a mean value. The results represent the maximal pressure (expressed in grams) tolerated by the animals. There was an upper limit cutoff of 30 seconds, after which the mechanical stimulus was automatically terminated.

[17] = system: Balb/c mice exposed to chronic treatment with Oxaliplatin; assay: Caudal nerve conduction study in chronic oxaliplatin neuropathy model; type: in vivo, mouse; conditions: OXA 3.5 mg/kg iv, 8 cycles ± BFMD 30 mg/kg ip + 15 mg/kg iv
Description: The development of peripheral neuropathy after chronic administration of drugs was assessed by evaluating the nerve conduction velocity (NCV) along caudal and digital nerve using an electromyography apparatus (Myto2 ABN Neuro, Firenze, Italy). Caudal NCV was determined by placing a couple of recording needle electrodes at the base of the tail and a couple of stimulating needle electrodes 3.5 cm distally to the recording points. Similarly, the digital NCV was determined by placing the recording electrodes close to the ankle bone and the stimulating electrodes close to the fourth toe near the digital nerve. The intensity, duration and frequency of stimulation were set up in order to obtain optimal results. All the neurophysiological determinations were performed under standard conditions in a temperature-controlled room (22+/−2° C.) and the animal under isoflurane anesthesia along the whole procedure with continuous monitoring of vital signs.

[18] = cited from earlier work; remark: listed apart in the source
[19] = MDCK-II cells transfected with human OCT2, probe oxaliplatin 10 μM

IC50 (OCT2 [1]; IC50,app (μM), apparent inhibition constant in 100% human serum or HBSS containing 4% BSA, OCT2-mediated oxaliplatin uptake): 36.8 µM
IC50 (OCT2 [1]; OCT2 IC50, app (μM), 100% human serum or HBSS containing 4% BSA, 20 μM or 100 μM oxaliplatin): 36.8 ± 13.6 µM
potency estimated from few doses (OCT2 [3]): 26.4 µM
IC50 (OCT2 [5]): 9.71 µM
inhibition at 30 min, 5 μM (OCT2 [5]): 34%
inhibition at 30 min, 50 μM (OCT2 [5]): 83%
potency estimated from few doses at 30 min (OCT2 [5]; IC50 (μM) (substrate Oxaliplatin)): 9.7 µM
Plasma peak unbound concentration Cmax,u [7]: 9600 nM
IC50 (OCT2 [8]): 57.6 ± 6.9 µM
SMILES: CN/C(=N/CCSCc1nc[nH]c1C)NC#N [Cimetidine]
transporter preference in inhibiting oxaliplatin transport (OCT2 [1]): even more preference towards inhibiting oxaliplatin transport through MATE1
effect on oxaliplatin induced cytotoxicity in OCT2 expressing cells [2]: did not reduce oxaliplatin cytotoxicity
Inhibition % @ 20 μM (substrate ASP+) (OCT2 [4]; OCT2-mediated uptake, ASP+ 5 μM in HBSS, from Kido Y et al. J Med Chem 2011): 43%
Plasma protein binding (%) ([6]; published data): 20%
effect on anti-tumor potency of oxaliplatin in HepG2 (HepG2 cells): nor cimetidine

SMILES: C#Cc1cccc(Nc2ncnc3cc(OCCOC)c(OCCOC)cc23)c1 [Erlotinib]
transporter preference in inhibiting oxaliplatin transport (OCT2 [1]): potent in suppressing OCT1 as well as OCT2
cytotoxicity of the inhibitor itself ([2]; 6 μM, without oxaliplatin, FIG. 6B): showed cytotoxicity itself without adding oxaliplatin
effect on oxaliplatin induced cytotoxicity in OCT2 expressing cells [2]: its EC50 value could not be obtained due to an ambiguous fitting
Plasma peak unbound concentration Cmax,u [9]: 380 nM
inhibition at 30 min, 5 μM (OCT2 [5]; [19]): 93%
inhibition at 30 min, 50 μM (OCT2 [5]; [19]): 106%
Mean Cmax ([6]; 150 mg po, day 24): 2120 ng/mL
Mean T1/2 ([6]; 150 mg po, day 24): 18.2 h
Mean Cmax ([6]; 150 mg po, single dose): 1140 ng/mL
Mean T1/2 ([6]; 150 mg po, single dose): 20 h
Plasma protein binding (%) ([6]; published data): 93%
Cmax ([6]; read-out: Mean Cmax, 150 mg po, day 24): 5400 nM
Cmax ([6]; read-out: Mean Cmax, 150 mg po, single dose): 2900 nM
Cmax ([6]; read-out: Plasma peak total concentration Cmax, published clinical pharmacokinetic data): 5400 nM
cellular accumulation of oxaliplatin in cells co-expressing OCT2 and MATE1 [10]: reduced cellular accumulation of oxaliplatin
effect on cisplatin anti-proliferation potency in HT-29 (HT-29 cells): ignorable impact on cisplatin cytotoxicity

SMILES: CCNC(=O)[C@@H]1CCCN1C(=O)[C@H](CCCNC(=N)N)NC(=O)[C@H](CC(C)C)NC(=O)[C@@H](CC(C)C)NC(=O)[C@H](Cc1ccc(O)cc1)NC(=O)[C@H](CO)NC(=O)[C@H](Cc1c[nH]c2ccccc12)NC(=O)[C@H](Cc1c[nH]cn1)NC(=O)[C@@H]1CCC(=O)N1 [Leuprolide]
potency estimated from few doses (OCT2 [11]): 2.8 µM
Inhibition % @ 20 μM (substrate ASP+) (OCT2 [4]; human, 20 μM): 88%
inhibition at 5 min, 5 μM (OCT2 [12]): 58%
inhibition at 5 min, 50 μM (OCT2 [12]): 91%
IC50 (OCT2 [5]): 1.57 µM
inhibition at 30 min, 5 μM (OCT2 [5]): 76%
inhibition at 30 min, 50 μM (OCT2 [5]): 97%
potency estimated from few doses at 30 min (OCT2 [5]): 1.57 µM
Cmax ([6]; human, in vivo): 17 nM
Plasma protein binding (%) ([6]; human, in vivo): 46%
Plasma peak unbound concentration Cmax,u [7]: 10 nM
IC50 (OCT2 [8]): 3.62 µM

SMILES: O=C(O)C(=O)O.[NH-][C@@H]1CCCC[C@H]1[NH-].[Pt+2] [Oxaliplatin]
Cold Plate Test pain signs after third injection ([13]; 3 cycles): significant increase in pain signs versus CTRL and all groups of treatment
Cold Plate Test pain signs at the end of treatment (eight injections) ([13]; 8 cycles): significant increase in pain signs versus CTRL and BFMD
pharmacokinetic interaction between BFMD and OXA (plasma levels) [14]: unaffected by the presence of BFMD
area of DRG neuron cell bodies and nucleoli (morphometry) ([15]; OXA 3.5 mg/kg iv twice a week for 4 weeks (8 cycles) ± BFMD 30 mg/kg ip + 15 mg/kg iv): significant decrease in the area
DRG histopathology (light and electron microscopy) ([15]; OXA 3.5 mg/kg iv, 8 cycles ± BFMD 30 mg/kg ip + 15 mg/kg iv): high incidence of multinucleolated cell bodies with eccentric nucleoli
mechanical allodynia, Dynamic Aesthesiometer Test at the end of treatment [16]: development of mechanical allodynia with a reduction in the latency until withdrawal
caudal nerve action potential amplitude [17]: significant decrease in caudal amplitude
caudal nerve conduction velocity [17]: significant reduction in caudal nerve conduction velocity vs. control mice
patients with severe PN (Grade 3 or higher) ([18]; cumulative doses 510-765 mg/m^2): up to 10%
patients developing severe PN ([18]; cumulative doses above 1000 mg/m^2, Argriou 2012): approximately 50%
